In the Kinase Knowledgebase extract (Sharma et al. 2016):

Key:
CDK2 = CDK2 (UniProt P24941); experiment: Enzyme Assay; conditions: for inhibition: concentration not given here
CDK2 (human) = CDK2 (human) (UniProt P24941); experiment: Cell-Based Assay

| IC50 (CDK2) | Structure (SMILES) | other results |
| --- | --- | --- |
| < 4 µM | CNC(=O)OCC#Cc1cccc2c1/C(=C/c1[nH]ccc1OC)C(=O)N2 | – |
| – | COC(=O)NCC#Cc1c(F)ccc2c1/C(=C/c1[nH]cnc1C)C(=O)N2 | inhibition (CDK2): > 90%; IC50 (CDK2 (human); mda-mb-435): < 3.5 µM |
| < 4 µM | COc1cc[nH]c1/C=C1\C(=O)Nc2cccc(C#CC3(O)CCCC3)c21 | – |
| – | COc1cc[nH]c1/C=C1\C(=O)Nc2ccc([N+](=O)[O-])c(C#CCO)c21 | inhibition (CDK2): > 90% |
| < 4 µM | Cc1nc[nH]c1/C=C1\C(=O)Nc2ccc(F)c(C#CCNC(N)=O)c21 | – |
| < 4 µM | COc1cc[nH]c1/C=C1\C(=O)Nc2cccc(C#CCOC(N)=O)c21 | – |
| < 4 µM | COC(=O)CCCC#Cc1cccc2c1/C(=C/c1[nH]ccc1OC)C(=O)N2 | – |
| < 4 µM | CCC(O)C#Cc1cccc2c1/C(=C/c1[nH]ccc1OC)C(=O)N2 (configuration not stated) | – |
| – | COC(=O)CCC#Cc1c([N+](=O)[O-])ccc2c1/C(=C/c1[nH]ccc1OC)C(=O)N2 | inhibition (CDK2): > 60% |
| < 4 µM | CNCC#Cc1c(F)ccc2c1/C(=C/c1[nH]cnc1C)C(=O)N2 | IC50 (CDK2 (human); sw480): < 1 µM |
| < 4 µM | CCCCC[C@H](O)C#Cc1cccc2c1/C(=C/c1[nH]ccc1OC)C(=O)N2 | – |
| < 4 µM | COc1cc[nH]c1/C=C1\C(=O)Nc2ccc(N)c(C#CCO)c21 | – |
| < 4 µM | COc1cc[nH]c1/C=C1\C(=O)Nc2cccc(C#CC(C)(C)O)c21 | – |
| < 4 µM | COc1cc[nH]c1/C=C1\C(=O)Nc2cccc(C#CCCCO)c21 | – |
| < 4 µM | CCC(C)(O)C#Cc1cccc2c1/C(=C/c1[nH]ccc1OC)C(=O)N2 (configuration not stated) | – |
| < 4 µM | CCC(O)C#Cc1c([N+](=O)[O-])ccc2c1/C(=C/c1[nH]cnc1C)C(=O)N2 (configuration not stated) | IC50 (CDK2 (human); mda-mb-435): < 3.5 µM; IC50 (CDK2 (human); sw480): < 1 µM |
| < 4 µM | COc1cc[nH]c1/C=C1\C(=O)Nc2cccc(C#CCCC(=O)O)c21 | – |
| < 4 µM | COc1cc[nH]c1/C=C1\C(=O)Nc2cccc(C#CCCC(N)=O)c21 | – |
| < 4 µM | C#CCOCCO | – |
| < 4 µM | COc1cc[nH]c1/C=C1\C(=O)Nc2cccc(C#CCCCCO)c21 | – |
| < 4 µM | COc1cc[nH]c1/C=C1\C(=O)Nc2ccc(NC(=O)c3ccncc3)c(C#CCO)c21 | – |
| < 4 µM | COc1cc[nH]c1/C=C1\C(=O)Nc2cccc(C#CCC(C(=O)O)C(=O)O)c21 | – |
| < 4 µM | Cc1nc[nH]c1/C=C1\C(=O)Nc2ccc(F)c(C#CCO)c21 | – |
| < 4 µM | CCC(O)C#Cc1c(F)ccc2c1/C(=C/c1[nH]cnc1C)C(=O)N2 (configuration not stated) | IC50 (CDK2 (human); mda-mb-435): < 3.5 µM; IC50 (CDK2 (human); sw480): < 1 µM |
| < 4 µM | CCN(CC)CC#Cc1c(F)ccc2c1/C(=C/c1[nH]cnc1C)C(=O)N2 | – |

| IC50 (CDK2) | Structure (SMILES) | other results |
| --- | --- | --- |
| < 4 µM | Cc1nc[nH]c1/C=C1\C(=O)Nc2ccc(F)c(C#CCN(C)C)c21 | – |
| < 4 µM | COc1cc[nH]c1/C=C1\C(=O)Nc2cccc(C#CC(C)(O)CC(C)C)c21 (configuration not stated) | – |
| < 4 µM | COc1cc[nH]c1/C=C1\C(=O)Nc2cccc(C#CCCCC(=O)O)c21 | – |
| < 4 µM | COC(=O)C(CC#Cc1cccc2c1/C(=C/c1[nH]ccc1OC)C(=O)N2)C(=O)OC | – |
| < 4 µM | COc1cc[nH]c1/C=C1\C(=O)Nc2cccc(C#CCCCC(N)=O)c21 | – |
| < 4 µM | Cc1nc[nH]c1/C=C1\C(=O)Nc2ccc(F)c(C#CCN3CCOCC3)c21 | – |
| < 4 µM | CCCC(C)(O)C#Cc1cccc2c1/C(=C/c1[nH]ccc1OC)C(=O)N2 (configuration not stated) | – |
| < 4 µM | Cc1nc[nH]c1/C=C1\C(=O)Nc2ccc(F)c(C#CCOC(N)=O)c21 | – |
| < 4 µM | COC(=O)CCC#Cc1c(N)ccc2c1/C(=C/c1[nH]ccc1OC)C(=O)N2 | – |
| < 4 µM | COc1cc[nH]c1/C=C1\C(=O)Nc2cccc(C#CCN)c21 | – |
| < 4 µM | CCCCCC(O)C#Cc1cccc2c1/C(=C/c1[nH]ccc1OC)C(=O)N2 (configuration not stated) | – |
| < 4 µM | COc1cc[nH]c1/C=C1\C(=O)Nc2ccc(NC(=O)Cc3cccs3)c(C#CCCC(=O)O)c21 | – |
| < 4 µM | COc1cc[nH]c1/C=C1\C(=O)Nc2cccc(C#CCCO)c21 | – |
| < 4 µM | COC(=O)NCC#Cc1cccc2c1/C(=C/c1[nH]ccc1OC)C(=O)N2 | – |
| < 4 µM | COc1cc[nH]c1/C=C1\C(=O)Nc2cccc(C#CCNCc3ccccc3)c21 | – |
| < 4 µM | Cc1nc[nH]c1/C=C1\C(=O)Nc2ccc(F)c(C#CCC(C)O)c21 (configuration not stated) | IC50 (CDK2 (human); mda-mb-435): < 3.5 µM |
| < 4 µM | COC(=O)CCC#Cc1cccc2c1/C(=C/c1[nH]ccc1OC)C(=O)N2 | – |
| < 4 µM | COc1cc[nH]c1/C=C1\C(=O)Nc2cccc(C#CCO)c21 | – |
| < 4 µM | CCOC(=O)C(CC#Cc1c(F)ccc2c1/C(=C/c1[nH]cnc1C)C(=O)N2)NC(C)=O (configuration not stated) | IC50 (CDK2 (human); mda-mb-435): < 3.5 µM |
| < 4 µM | COCC#Cc1cccc2c1/C(=C/c1[nH]ccc1OC)C(=O)N2 | – |
| < 4 µM | Cc1nc[nH]c1/C=C1\C(=O)Nc2ccc(F)c(C#CC(C)(C)N)c21 | – |
| – | CCC(N)(C#Cc1c(F)ccc2c1/C(=C/c1[nH]cnc1C)C(=O)N2)CC | IC50 (CDK2 (human); sw480): < 1 µM |
| < 4 µM | COc1cc[nH]c1/C=C1\C(=O)Nc2cccc(C#CC3(O)CCCCC3)c21 | – |
| < 4 µM | CNCC#Cc1cccc2c1/C(=C/c1[nH]ccc1OC)C(=O)N2 | – |
